This series can be described thus: Saturated solubility in ethanol solvent (excess loaded, stirred 24 hours, 0.45-um filtrate measured with LCMS). The settings on record: for saturated solubility used in calculation of the degree of supersaturation: 90% by mass of EtOH, 10° C.; for saturated dissolution concentration: 90% ethanol solvent at 10° C., according to FIG. 1. Format: physicochemical. The method, then: The saturated solubility is herein measured according to the following method. That is, 100 ml of a solvent having a predetermined ethanol concentration (w/w) is placed in a container (having a volume of 100 ml or 200 ml, suitably 200 ml), the liquid temperature is set to 10° C. by a water bath in advance, and then the solvent is stirred at 200 rpm, and a target substance is loaded in an excessive amount (amount until suspension is made). After 24 hours, a filtrate is obtained by a 0.45-um membrane filter, and the amount of the target substance (RebA or RebD) included in the filtrate is measured with LCMS. LCMS here used is suitably LCMS 8050 manufactured by Shimadzu Corporation.
Specifically, 100 ml of a solvent having a predetermined ethanol concentration (w/w) was placed in a […] glass container (separable round-bottomed flask, Tokyo Rikakikai Co., Ltd.), set to a predetermined temperature by a water bath (PCC-7000, Tokyo Rikakikai Co., Ltd.) in advance, and then stirred (SPZ-100, Tokyo Rikakikai Co., Ltd.) at 200 rpm, and RebA (J-100, Morita Kagaku Kogyo Co., Ltd.) or RebD (Jining Renewal & Joint International, China) was loaded in an excessive amount (amount until suspension was achieved). After 24 hours, a filtrate was obtained by a 0.45-um membrane filter, the amount of RebA or RebD included in the filtrate was measured with LCMS (LCMS 8050 manufactured by Shimadzu Corporation), and the solubility curve was created. The results are illustrated in FIG. 1.

Each structure is given as a SMILES string.

For the molecule `C=C1C[C@@]23CC[C@H]4[C@@](C)(CCC[C@@]4(C)C(=O)O[C@@H]4O[C@H](CO)[C@@H](O)[C@H](O)[C@H]4O)[C@@H]2CC[C@]1(O[C@@H]1O[C@H](CO)[C@@H](O)[C@H](O[C@@H]2O[C@H](CO)[C@@H](O)[C@H](O)[C@H]2O)[C@H]1O[C@@H]1O[C@H](CO)[C@@H](O)[C@H](O)[C@H]1O)C3` [RebA, rebaudioside A], the “saturated solubility used in calculation of the degree of supersaturation” value is on record as 8270.5 ppm and the saturated dissolution concentration is given as 8,250 ppm.

As to `C=C1C[C@@]23CC[C@H]4[C@@](C)(CCC[C@@]4(C)C(=O)O[C@@H]4O[C@H](CO)[C@@H](O)[C@H](O)[C@H]4O[C@@H]4O[C@H](CO)[C@@H](O)[C@H](O)[C@H]4O)[C@@H]2CC[C@]1(O[C@@H]1O[C@H](CO)[C@@H](O)[C@H](O[C@@H]2O[C@H](CO)[C@@H](O)[C@H](O)[C@H]2O)[C@H]1O[C@@H]1O[C@H](CO)[C@@H](O)[C@H](O)[C@H]1O)C3` [RebD, rebaudioside D], the “saturated solubility used in calculation of the degree of supersaturation” value is on record as 99.33 ppm and the saturated dissolution concentration worked out at 99.3 ppm.
